Assay results reported in patent US20260138958A1, “SUBSTITUTED N-PHENYLURACILS AND SALTS THEREOF, AND USE THEREOF AS HERBICIDAL ACTIVE SUBSTANCES” (Bayer Aktiengesellschaft, priority 2022, published 2026).
One block for each molecule: values may come before it.

What was measured:
Assay type in all cases: in vivo
[1] = tested on: Echinochloa crus-galli (ECHCG); experiment: Post-emergence herbicidal action, greenhouse pot test
Experimental: (§1) Seeds of monocotyledonous and dicotyledonous weeds and crop plants were placed in sandy loam in plastic or wood-fibre pots, covered with soil and cultivated in a greenhouse under controlled growth conditions. 2 to 3 weeks after sowing, the test plants were treated at the one-leaf stage. The compounds of the invention, formulated in the form of wettable powders (WP) or as emulsion concentrates (EC), were then sprayed onto the green parts of the plants as aqueous suspension or emulsion with addition of 0.5% additive at a water application rate of 600 l/ha (converted). After the test plants had been kept in the greenhouse under optimum growth conditions for about 3 weeks, the activity of the preparations was rated visually in comparison to untreated controls. For example, 100% activity=the plants have died, 0% activity=like control plants.

[2] = tested on: Alopecurus myosuroides (ALOMY); experiment: as above
Experimental: as §1

[3] = tested on: Digitaria sanguinalis (DIGSA); experiment: as above
Experimental: as §1

[4] = tested on: Polygonum convolvulus (POLCO); experiment: as above
Experimental: as §1

Viola tricolor (VIOTR) = experiment: as above
Experimental: as §1

[5] = tested on: Pharbitis purpurea (PHBPU); experiment: as above
Experimental: as §1

Bassia scoparia (KCHSC) = experiment: as above
Experimental: as §1

Veronica persica (VERPE) = experiment: as above
Experimental: as §1

[6] = tested on: Amaranthus retroflexus (AMARE); experiment: as above
Experimental: as §1

[7] = tested on: Abutilon theophrasti (ABUTH); experiment: as above
Experimental: as §1

[8] = tested on: Tripleurospermum inodorum (MATIN); experiment: as above
Experimental: as §1

Setaria viridis (SETVI) = experiment: as above
Experimental: as §1

Lolium rigidum (LOLRI) = experiment: as above
Experimental: as §1

[9] = tested on: Triticum aestivum (TRZAS); experiment: Post-emergence crop plant compatibility, greenhouse pot test; conditions: crop plant, post-emergence, 1.25 g/ha
Experimental: as §1
The observed effects on selected crop plants are reported here in comparison to the untreated controls (values in %).

Post-emergence effect at 1.25 g/ha against TRZAS in % [9]: 10%
Structure (SMILES): Cn1c(C(F)(F)F)cc(=O)n(-c2cc(Oc3ccccc3OCC(=O)OCC3CC34CCC4)c(Cl)cc2F)c1=O (stereo not shown) [I.7-19]
Post-emergence effect at 5 g/ha against ECHCG in % [1]: 100% | Post-emergence effect at 20 g/ha against ECHCG in % [1]: 100% | Post-emergence effect at 20 g/ha against ALOMY in % [2]: 100% | Post-emergence effect at 5 g/ha against DIGSA in % [3]: 100% | Post-emergence effect at 20 g/ha against DIGSA in % [3]: 100% | Post-emergence effect at 5 g/ha against POLCO in % [4]: 100% | Post-emergence effect at 20 g/ha against POLCO in % [4]: 100% | Post-emergence effect at 1.25 g/ha against VIOTR in % (Viola tricolor (VIOTR)): 100% | Post-emergence effect at 5 g/ha against VIOTR in % (Viola tricolor (VIOTR)): 100% | Post-emergence effect at 20 g/ha against VIOTR in % (Viola tricolor (VIOTR)): 100% | Post-emergence effect at 1.25 g/ha against PHBPU in % [5]: 80% | Post-emergence effect at 5 g/ha against PHBPU in % [5]: 100% | Post-emergence effect at 20 g/ha against PHBPU in % [5]: 100% | Post-emergence effect at 1.25 g/ha against KCHSC in % (Bassia scoparia (KCHSC)): 80% | Post-emergence effect at 5 g/ha against KCHSC in % (Bassia scoparia (KCHSC)): 80% | Post-emergence effect at 20 g/ha against KCHSC in % (Bassia scoparia (KCHSC)): 100% | Post-emergence effect at 1.25 g/ha against VERPE in % (Veronica persica (VERPE)): 90% | Post-emergence effect at 5 g/ha against VERPE in % (Veronica persica (VERPE)): 100% | Post-emergence effect at 20 g/ha against VERPE in % (Veronica persica (VERPE)): 100% | Post-emergence effect at 1.25 g/ha against AMARE in % [6]: 100% | Post-emergence effect at 5 g/ha against AMARE in % [6]: 100% | Post-emergence effect at 20 g/ha against AMARE in % [6]: 100% | Post-emergence effect at 1.25 g/ha against ABUTH in % [7]: 100% | Post-emergence effect at 5 g/ha against ABUTH in % [7]: 100% | Post-emergence effect at 20 g/ha against ABUTH in % [7]: 100% | Post-emergence effect at 20 g/ha against MATIN in % [8]: 100% | Post-emergence effect at 1.25 g/ha against SETVI in % (Setaria viridis (SETVI)): 100% | Post-emergence effect at 5 g/ha against SETVI in % (Setaria viridis (SETVI)): 100% | Post-emergence effect at 20 g/ha against SETVI in % (Setaria viridis (SETVI)): 100% | Post-emergence effect at 20 g/ha against LOLRI in % (Lolium rigidum (LOLRI)): 80%

Post-emergence effect at 1.25 g/ha against TRZAS in % [9]: 20%
Structure (SMILES): Cn1c(C(F)(F)F)cc(=O)n(-c2cc(Oc3ccccc3OCC(=O)OC(C#N)C3CC3)c(Cl)cc2F)c1=O (stereo not shown) [I.7-4]
Post-emergence effect at 5 g/ha against ECHCG in % [1]: 100% | Post-emergence effect at 20 g/ha against ECHCG in % [1]: 100% | Post-emergence effect at 5 g/ha against ALOMY in % ([2]; 5 g/ha): 80% | Post-emergence effect at 20 g/ha against ALOMY in % [2]: 100% | Post-emergence effect at 5 g/ha against DIGSA in % [3]: 100% | Post-emergence effect at 20 g/ha against DIGSA in % [3]: 100% | Post-emergence effect at 5 g/ha against POLCO in % [4]: 100% | Post-emergence effect at 20 g/ha against POLCO in % [4]: 100% | Post-emergence effect at 1.25 g/ha against VIOTR in % (Viola tricolor (VIOTR)): 100% | Post-emergence effect at 5 g/ha against VIOTR in % (Viola tricolor (VIOTR)): 100% | Post-emergence effect at 20 g/ha against VIOTR in % (Viola tricolor (VIOTR)): 100% | Post-emergence effect at 1.25 g/ha against PHBPU in % [5]: 80% | Post-emergence effect at 5 g/ha against PHBPU in % [5]: 100% | Post-emergence effect at 20 g/ha against PHBPU in % [5]: 100% | Post-emergence effect at 1.25 g/ha against KCHSC in % (Bassia scoparia (KCHSC)): 100% | Post-emergence effect at 5 g/ha against KCHSC in % (Bassia scoparia (KCHSC)): 100% | Post-emergence effect at 20 g/ha against KCHSC in % (Bassia scoparia (KCHSC)): 100% | Post-emergence effect at 1.25 g/ha against VERPE in % (Veronica persica (VERPE)): 100% | Post-emergence effect at 5 g/ha against VERPE in % (Veronica persica (VERPE)): 100% | Post-emergence effect at 20 g/ha against VERPE in % (Veronica persica (VERPE)): 100% | Post-emergence effect at 1.25 g/ha against AMARE in % [6]: 100% | Post-emergence effect at 5 g/ha against AMARE in % [6]: 100% | Post-emergence effect at 20 g/ha against AMARE in % [6]: 100% | Post-emergence effect at 1.25 g/ha against ABUTH in % [7]: 100% | Post-emergence effect at 5 g/ha against ABUTH in % [7]: 100% | Post-emergence effect at 20 g/ha against ABUTH in % [7]: 100% | Post-emergence effect at 5 g/ha against MATIN in % ([8]; 5 g/ha): 100% | Post-emergence effect at 20 g/ha against MATIN in % [8]: 100% | Post-emergence effect at 1.25 g/ha against SETVI in % (Setaria viridis (SETVI)): 100% | Post-emergence effect at 5 g/ha against SETVI in % (Setaria viridis (SETVI)): 100% | Post-emergence effect at 20 g/ha against SETVI in % (Setaria viridis (SETVI)): 100% | Post-emergence effect at 20 g/ha against LOLRI in % (Lolium rigidum (LOLRI)): 100%
